These results are taken from patent US20120121692A1, “COMPOUNDS AND COMPOSITIONS COMPRISING CDK INHIBITORS AND METHODS FOR TREATING CANCER” (SHANDONG UNIVERSITY, priority 2009, published 2012).

The subject of data set [1] is HCT116 cells. Nature of the data set: MTT cytotoxicity screening, human colon cancer cell line HCT116. As to conditions: Homo sapiens, HCT-116, 48 hrs incubation, absorbance 490 nm, primary screening, read-out: IC50. In kind it is cell-based. The method in brief: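 HCT116 cells seeded at 2.5×10^4 cells/ml, treated 24 h later for 48 h with compounds in medium (final DMSO 0.1%-0.001% v/v); dose series 100 μM–1 μM or 10 μM–62.5 nM, primary screen at 100 and 10 μM. Viability read by MTT (4 h, 37° C), formazan dissolved in DMSO, absorbance 490 nm.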

Data set [2] has as its system Human Colon Carcinoma HCT116 xenograft. Nature of the data set: In vivo human colon carcinoma HCT116 xenograft test. More on the design: species or system BALB/cASlac-nu mice. How it is done:
(E)-3-(2-Chlorophenyl)-1-(2-hydroxy-4,6-dimethoxy-3-(1,2,3,6-tetrahydropyridine-4-yl)phenyl)-2-propylene-1-one hydrochloride, B2, was dissolved in a pyrogen-free, sterile PBS solution containing 1% dimethyl sulfoxide (DMSO). For daily injections, a freshly prepared solution was stored at 4° C. Before injection the B2 solution was warmed up to 37° C. and vigorously agitated in a vortex. B2 was administered through intraperitoneal injection (i.p.), 2.5, or 7.5 mg/kg/d, 20 days.
The positive control animals received 5 mg/kg/d doxorubicin intraperitoneally (i.p.), and the blank group mice received PBS solution containing 1% DMSO i.p., 5 mL/kg/d.
Female BALB/cASlac-nu mice (SLAC LABORATORY ANIMAL, Shanghai), ages 4 to 5 weeks, were used in this procedure. Animals were maintained according to the guidelines established by the National Institutes of Health.
The Human Colon Carcinoma HCT116 were grown in RPMI-1640 medium with 10% fetal calf serum and L-glutamine, and the cells were maintained using standard tissue culture conditions.
For the production of s.c. tumors, 1×10^7 cells in 0.1 mL of medium without serum were inoculated in the right flank of mice. After the tumors were implanted and reached a palpable size, the mice were randomized into control and treatment groups (n=6)
Subcutaneous tumors were measured with caliper, and the weight of the animals recorded at least three times a week. Tumor volume was estimated from caliper measurements of two perpendicular dimensions of the tumor in millimeters using the formula:
Tumor Volume(mm^3)=length(mm)×width(mm)^2/2
Tumor Inhibition Ratio (%)=(the blank group tumor weight average−the treatment group tumor weight average)/the blank group tumor weight average×100
Relative Tumor Volume (RTV)=Vt/V0. V0: the tumor volume measured at the time of randomization; Vt: the tumor volume measured each time during the administration.
Relative Increment Ratio T/C (%)=the treatment group(T) RTV/the blank control group(C) RTV×100. T/C(%)>40: inefficacy; T/C(%)≦40, and P<0.05: utility.
(In xenograft studies the graft and the host belong to different species.)

What is called IC50 is the concentration that inhibits the measured activity by half. For the molecule `COc1cc(OC)c(C2=CCNCC2)c(O)c1C(=O)/C=C/c1ccccc1Cl` [Compound B2, (E)-3-(2-chlorophenyl)-1-(2-hydroxy-4,6-dimethoxy-3-(1,2,3,6-tetrahydropyridine-4-yl)phenyl)-2-propylene-1-one], the concentration for half-maximal inhibition (IC50) in data set [1] stood at 0.1 µM. In addition, in data set [2] (2.5 mg/kg/d × 20 d i.p.), the “% inhibit. (tumor inhibition ratio by tumor weight)” value is on record as 88.2%, the “RTV (relative tumor volume Vt/V0)” value was determined as 2.86 ± 0.202, the “TIV (%)” value is reported as 19.0% and the “Tumor wgt.” value worked out at 0.041 ± 0.0093 g. For the same molecule, in data set [2] (2.5 mg/kg/d × 20 d i.p.), the “Tumor vol. (mm^3) Final” value is 121 ± 78.2 mm^3 and the “Tumor vol. (mm^3) Initial” value was 53 ± 28.0 mm^3. Besides, in data set [2] (7.5 mg/kg/d × 20 d i.p.), the “% inhibit. (tumor inhibition ratio by tumor weight)” value is listed as −25.6%, the “RTV (relative tumor volume Vt/V0)” value stood at 12.57 ± 0.667, the “TIV (%)” value worked out at 83.3% and the “Tumor wgt.” value is on record as 0.437 ± 0.3105 g. Also, in data set [2] (7.5 mg/kg/d × 20 d i.p.), the “Tumor vol. (mm^3) Final” value was found to be 777 ± 459.5 mm^3 and the “Tumor vol. (mm^3) Initial” value amounted to 58 ± 39.7 mm^3. The “optimal T/C (relative increment ratio)” value in data set [2] (HCT116 xenografts, dosage of 2.5 mg/kg/day) was 19.0%. In addition, the “toxicity during the administration” value in data set [2] (two B2 treatment groups, 2.5 or 7.5 mg/kg/d i.p., 20 days) is “no significant toxicity was found”.
In general, melting point refers to the temperature, or range, at which the solid turns liquid. In turn, `COc1cc(OC)c(C2=CCN(C)CC2)c(O)c1C(=O)/C=C/c1ccccc1[N+](=O)[O-]` [Compound A3, (E)-1-(2-hydroxy-4,6-dimethoxy-3-(1-methyl-1,2,3,6-tetrahydropyridine-4-yl)phenyl)-3-(2-nitrophenyl)-2-propylene-1-one] had a melting point of 149 to 151 °C. Further, the IC50 in data set [1] turned out to be 17.9 µM.
`COc1cc(OC)c(C2=CCNCC2)c(O)c1C(=O)/C=C/c1ccco1` [Compound E2, (E)-3-(furan-2-yl)-1-(2-hydroxy-4,6-dimethoxy-3-(1,2,3,6-tetrahydropyridin-4-yl)phenyl)-2-propylene-1-one] displayed a melting point of 119 to 120 °C. Besides, in data set [1], the concentration for half-maximal inhibition (IC50) is 11.1 µM.
Molecule `COc1cc(OC)c(C2=CCN(C)CC2)c(O)c1C(=O)/C=C/c1ccc(C#N)cc1` [Compound A15, (E)-3-(4-cyanophenyl)-1-(2-hydroxy-4,6-dimethoxy-3-(1-methyl-1,2,3,6-tetrahydropyridine-4-yl)phenyl)-2-propylene-1-one] had a melting point of 125 to 126 °C. In data set [1], the half-inhibitory concentration (IC50) was determined as 13.3 µM.
Taken in the same sequence, the figures for `COc1cc(/C=C/C(=O)c2c(OC)cc(OC)c(C3=CCNCC3)c2O)cc(OC)c1OC` [Compound B17, (E)-1-(2-hydroxy-4,6-dimethoxy-3-(1,2,3,6-tetrahydropyridine-4-yl)phenyl)-3-(3,4,5-trimethoxyphenyl)-2-propylene-1-one] were 124 to 125 °C and 4.2 µM.
`COc1cc(OC)c(C2=CCNCC2)c(O)c1C(=O)/C=C/c1ccc(Cl)cc1` [Compound B12, (E)-3-(4-chlorophenyl)-1-(2-hydroxy-4,6-dimethoxy-3-(1,2,3,6-tetrahydropyridine-4-yl)phenyl)-2-propylene-1-one] had a melting point of 93 to 94 °C. The half-inhibitory concentration (IC50) in data set [1] was 4.82 µM.
Molecule `COc1cc(OC)c(C2=CCNCC2)c(O)c1C(=O)/C=C/c1cccc(Cl)c1` [Compound B7, (E)-3-(3-chlorophenyl)-1-(2-hydroxy-4,6-dimethoxy-3-(1,2,3,6-tetrahydropyridine-4-yl)phenyl)-2-propylene-1-one] registered a melting point of 102 to 103 °C. For the same molecule, the IC50 in data set [1] turned out to be 9.97 µM.
Taken in the same sequence, the figures for `COc1cc(OC)c(C2=CCN(C)CC2)c(O)c1C(=O)/C=C/c1ccc(Cl)cc1` [Compound A12, (E)-3-(4-chlorophenyl)-1-(2-hydroxy-4,6-dimethoxy-3-(1-methyl-1,2,3,6-tetrahydropyridine-4-yl)phenyl)-2-propylene-1-one] were 169 to 170 °C and 8.3 µM.
Taken in the same sequence, the figures for `COc1ccc(-c2cc(=O)c3c(OC)cc(OC)c(C4=CCN(C)CC4)c3o2)c(OC)c1OC` [Compound F7, 5,7-dimethoxy-8-(1-methyl-1,2,3,6-tetrahydropyridin-4-yl)-2-(2,3,4-trimethoxy-phenyl)-4H-chromen-4-one] were 209 to 210 °C and 9.17 µM.
